Results taken from patent US11013219B2, “Metabolism-based drug screening platform in bioengineered zebrafish” (Path Therapeutics, Inc., priority 2014, dated 2021).

Assays:
[1] = system: kcna1 morphants; assay: Drug-discovery platform (locomotor screen, then Seahorse), kcna1 morphant genetic model; assay type: in vivo, zebrafish; settings: blinded study
Experimental: (§1) 10 mM stock solutions of drugs in DMSO were stored at −80° C. and on the day of assay were diluted in E3 medium to a final concentration of 20 μM. For behavioral assays and Seahorse bioenergetics, 20 μM final concentration was used. Adult wild-type TL zebrafish were raised at the Kurrasch Aquatic Research Laboratory at the University of Calgary under standard conditions (28° C., 14 h light/10 h dark cycle) on a recirculating water system.
(§2) Embryos were obtained by natural spawning from mating pairs, screened for viability and for kcna1 and scn1a morpholino models, embryos were injected with either the kcna1- or scn1a-targeting morpholino at the one cell stage. The embryos were sorted for uptake of the morpholino four hours post-injection and seeded to 96 well plates, wrapped in aluminum foil (i.e., raised in the dark), maintained in a non-CO2 incubator at 28.5° C. until 5 dpf.
(§3) On the day of assay, for the kcna1 and scn1a morpholino models, fish were habituated for 20 minutes under 100% light treated with 20 μm of drugs for 20 minutes, and then assayed for locomotor activity in dark for 20 minutes in the zebrabox (Viewpoint Lifesciences, Lyon, Fr). Larval locomotor activity was analyzed using Zebralab V3 software (Viewpoint Lifesciences, Lyon, Fr). For the PTZ model, at 5 dpf, fish were treated with 10 mM PTZ for 10 minutes and then with 20 μM of drugs for 20 minutes under ambient light, and then assayed for locomotor activity under 100% light for 20 minutes in the zebrabox (Viewpoint Lifesciences, Lyon, Fr). Larval locomotor activity was analyzed using Zebralab V3 software (Viewpoint Lifesciences, Lyon, France).
(§4) For the Seahorse bioenergetics measurements, microinjected kcna1 or scn1a morphants or WT zebrafish were maintained in 96 well plates as previously described. XF24 extracellular flux assay plates (Seahorse Bioscience; Massachusetts), were hydrated overnight with XF Calibrant (pH 7.4). […]

[2] = system: scn1a morphants; assay: Drug-discovery platform (locomotor screen, then Seahorse), scn1a morphant genetic model; assay type: in vivo, zebrafish; settings: blinded study
Experimental: as §1, §2, §3, §4

[3] = system: shank3 morphants; assay: Seahorse basal respiration, shank3 morphants (ASD and schizophrenia model); assay type: in vivo, zebrafish; settings: shank3-MO
Experimental: (§5) Next, all positive hits were assayed for improve bioenergetics using Seahorse bioanalyzer (Seahorse, Inc). Briefly, morphant zebrafish were seeded into 24-well Islet Flux plates (Seahorse) and incubated with compound or vehicle for 10 minutes prior to analysis. Complete mitochondrial profile was assessed for each individual larvae. Drugs that improved bioenergetics by 40% were considered candidate drugs.
(§6) Morpholinos directed to scn1a (epilepsy), park2 (neurodegenerative disease), idh1 (brain tumors (astrocytoma/oligodendrogliomas), cdkn2b (oligodendroglioma), h3f3a (oligodendroglioma), snf5 (smarcbla in zebrafish; Atypical Teratoid/Rhabdoid)), and shank3 (Autism Spectrum Disorder) were created and zebrafish larvae exposed as detailed in Example 3.

[4] = system: park2 morphants; assay: Seahorse basal respiration, park2 morphants (Parkinson's Disease model); assay type: in vivo, zebrafish; settings: park2-MO
Experimental: as §5, §6

[5] = system: smarcbla morphants; assay: Seahorse basal respiration, smarcbla morphants (AT/RT model); assay type: in vivo, zebrafish; settings: smarcbla-MO
Experimental: as §5, with “larvae.” for “larvae. Drugs that improved bioenergetics by 40% were considered candidate drugs.”
as §6

[6] = system: cdkn2b morphants; assay: Seahorse basal respiration, cdkn2b morphants (glioblastoma model); assay type: in vivo, zebrafish; settings: cdkn2b-MO
Experimental: as §5, §6

[7] = system: kcna1 zebrafish morphants; assay: Behavioral hyperactivity (locomotion) assay, kcna1 morphants; assay type: in vivo; settings: larvae 5 days post fertilization; 10 minutes preincubation, assayed 20 minutes
Experimental: This Example utilizes the drug screening assay disclosed herein using morpholino-injected embryos to transiently knockdown genes of interest. Here, we compare three “epileptic” models for phenotypes in the behavioral assay: pharmacological-induction model (PTZ) and two genetic knockdown models (kcna1 and scn1a morphants).
Larvae were treated with morpholinos to kcna1 and scn1a as described above.
Zebrafish larvae (5 days post fertilization) were seeded into 96 well microliter plates containing vehicle solution and monitored for 20 minutes for hyperactivity. Morphants and WT zebrafish were exposed to drug for 10 minutes preincubation and then assayed for changes in hyperactivity for 20 minutes (Zebralab box). Drugs that decreased hyperactivity behavior by 40% in morphants were identified as “positive hits.”
These positive hits were then verified by conducting a dose-response relationship using hyperactivity as readout.

[8] = system: kcna1 morphant zebrafish; assay: Seahorse bioenergetic analysis, kcna1 morphants; assay type: in vivo; settings: Seahorse Bioanalyzer; for effect on elevated basal respiration in kcna1 morphant larvae: 24-well plate
Excerpt: (§7) One exemplary protocol for measuring oxygen consumption rates (OCR) using Extracellular Flux Analyzer (Seahorse Bioscience, Billerica Mass.) is described below. First, sensor cartridges are hydrated in XF Calibrant Solution in 24-well cell culture microplates overnight at 28.5 C. Prior to experiment, injection ports are filled with appropriate treatments and loaded into XH24 instrument. Staged zebrafish embryos (3 days post fertilization used here) are individually placed in 20 of the 24 wells (4 wells serve as controls) on the islet microplate filled with E3 buffer and islet plate capture screens are placed on top to keep living zebrafish from moving during experiment. Plates are loaded into the instrument and six measurement cycles were taken to establish basal rates, which were then followed by treatment injections and 18 additional measurement cycles. OCRs were calculated at cycles five and six and then averaged to create the basal respiration. FCCP treatment was used to measure maximum OCR and oligomycin was used to measure minimum OCR.
as §5
FIG. 4 provides workflow and results of bioenergetic analyses in a hyperactive zebrafish. […] The plates were loaded into XFe24 Seahorse Bioanalyzer. Basal, maximal, non-mitochondrial, and mitochondrial cellular respiration were measured.

[9] = system: PTZ-induced hyperactive zebrafish; assay: Seahorse bioenergetic analysis, PTZ-treated larvae; assay type: in vivo; settings: Seahorse Bioanalyzer
Excerpt: as §7, with “FCCP treatment was used to measure maximum OCR and oligomycin was used to measure minimum OCR.” left out
Next, all positive hits were assayed for improve bioenergetics using Seahorse bioanalyzer (Seahorse, Inc). […] Complete mitochondrial profile was assessed for each individual larvae. […]
FIG. 4 provides workflow and results of bioenergetic analyses in a hyperactive zebrafish. […] Basal, maximal, non-mitochondrial, and mitochondrial cellular respiration were measured.

[10] = system: scn1a morphants; assay: Seahorse basal respiration, scn1a morphants; assay type: in vivo; settings: scn1a-MO zebrafish
Experimental: as §5, §6

[11] = system: kcna1 mutants; assay: Seahorse basal respiration, kcna1 genetic mutant larvae; assay type: in vivo, zebrafish; settings: larvae with increased basal respiration washed with PBS and treated
Experimental: This example confirms that the results of drug screens using zebrafish morphants are the same in zebrafish bearing corresponding germline mutations. kcna1^+/− zebrafish were generated as described in Example 1. Heterozygous kcna1^+/− F1s were incrossed and the offspring examined in a behavioral monitoring chamber (Zebralab). We assume ¾ of the progeny are WT or heterozygotes and ¼ are mutants.
Next, a similar experiment was conducted to confirm that kcna1 mutants display a similar phenotype for mitochondrial function (e.g., increased mitochondrial function). Larvae were seeded into 24-well plates and assayed in the Seahorse machine for altered bioenergetics as discussed above. […] Increased basal respiration levels in approximately 25% of the embryos were also detected, as would be expected for a homozygous recessive mutation. […] Genotype was subsequently confirmed by qPCR (FIG. 9D).

[12] = system: kcna1 mutant zebrafish; assay: EEG / extracellular field recordings on live zebrafish larvae; assay type: in vivo; settings: kcna1 mutants plus vorinostat (10 μM)
Experimental: First, EEG recordings on live zebrafish were conducted. Briefly, acute seizure-like activity is measured in WT and mutant zebrafish larvae (5 dpf). Extracellular field recordings were obtained from the optic tectum of zebrafish larvae exposed first to vehicle, then washed out and then exposed to candidate drugs. Recordings are collected over 20 minutes and any decrease in small-amplitude “interictal”-like activity and/or large-amplitude “ictal”-like activity is quantified.

[13] = system: Kv1.1 null mice; assay: Video EEG seizure recording in Kv1.1 rodent model; assay type: in vivo; settings: three Kv1.1−/− mice; 20 mg/kg, twice a day, three consecutive days (PND 46-48) vs no treatment (PND 43-45); Two-way ANOVA, F=27.7, p<0.01
Experimental: Second, candidate drugs that decrease interictal-and/or ictal-like activity in mutant zebrafish lines are then validated in rodent models. Two rodent lines that contain coding deletions in the mammalian orthologs to the zebrafish mutants were used. Candidate drugs were injected intracranially and a decrease in seizure behaviors are monitored using video and […].
Briefly, mice were anesthetized with 3% isofluorane for 2 minutes. Eye glue was applied to the mouse, and anesthesia […] to 2% isofluorane. A “toe pinch” was administered to check anesthetic effect. The surgical area was then shaved while still connected to anesthesia. The anesthesia was increased to 2.5% isofluorane and the anesthetic cone placed over the nose. […]
Vorinostat (Drug #90) treatment reduces seizure occurrence in Kv1.1 null mice. Shown is a representative example of an electrographic seizure recorded from a Kv1.1−/−mouse. Three sets of epidural electroencephalogram (EEG) electrodes simultaneously recorded the signals across the rostral (top trace), medial (middle), and caudal (bottom trace) dorsal aspect of the neocortex. Bar graph of the mean number of seizures per day recorded from three Kv1.1−/−mice. Mice were recorded 24 hours per day for 3 consecutive days (No treatment, PND 43-45) and then received vorinostat injections (20 mg/kg, twice a day) for the next three consecutive days (PND 46-48).

Which “uncovered by the screening platform in genetic model (kcna1 morphants)” value (“uncovered … (kcna1 morphants)” for short) [1] does the source give for CC(=O)N1N=C(c2ccc(N)cc2)c2cc3c(cc2C[C@H]1C)OCO3 [Talampanel] here?
Its value is “would not have uncovered”.

And the “uncovered by the screening platform in genetic model (scn1a morphants)” value (“uncovered … (scn1a morphants)” below) [2]?
The value was “would not have uncovered”.

For Cc1nc2n(c(=O)c1CCN1CCC(c3noc4cc(F)ccc34)CC1)CCCC2 [resperidon], which “effect on increased basal respiration in shank3 morphants” value [3] is on record?
Its value is “Neither resperidon nor aripiprazole were effective”.

How did the “effect on increased basal respiration in park2 morphants” value [4] turn out when CC(C)C[C@H]1C(=O)N2CCC[C@H]2[C@]2(O)O[C@](NC(=O)[C@@H]3C=C4c5cccc6[nH]c(Br)c(c56)C[C@H]4N(C)C3)(C(C)C)C(=O)N12 [bromocriptine] was run?
Its value is “no effect”.

With O=P1(N(CCCl)CCCl)NCCCO1 (stereo not shown) [cyclophosphamide] as the compound, how does the “effect on increased basal respiration in smarcbla morphants” value [5] read?
The value was “no effect”.

O=C1CCc2ccc(OCCCCN3CCN(c4cccc(Cl)c4Cl)CC3)cc2N1 [aripiprazole] was tested. Which “effect on increased basal respiration in shank3 morphants” value [3] did it give?
Its value is “Neither resperidon nor aripiprazole were effective”.

How did the “effect on increased basal respiration in park2 morphants” value [4] turn out when N[C@@H](Cc1ccc(O)c(O)c1)C(=O)O [L-DOPA] was run?
Its value is “reverses this increased bioenergetics to WT levels”.

C[C@H](NCc1ccc(OCc2cccc(F)c2)cc1)C(N)=O [Safinamide] was tested. Which “uncovered … (kcna1 morphants)” value [1] did it give?
Its value is “would not have uncovered”.

And the “uncovered … (scn1a morphants)” value [2]?
Its value is “would not have uncovered”.

N.N.[Cl][Pt][Cl] [cisplatin] was tested. Which “effect on increased basal respiration in cdkn2b morphants” value [6] did it give?
Its value is “reverses this increased bioenergetics to WT levels”.

What about the “effect on increased basal respiration in smarcbla morphants” value [5] of the same compound?
The value was “reverses this increased bioenergetics to WT levels”.

With CC(Cc1ccccc1)(NC(=O)CN)c1ccccc1 (stereo not shown) [Remacemide] as the compound, how does the “uncovered … (kcna1 morphants)” value [1] read?
Its value is “would not have uncovered”.

And the “uncovered … (scn1a morphants)” value [2]?
Its value is “would not have uncovered”.

What does the source list for CCCC(CCC)C(=O)O [Valproic acid]?
effect on hyperactivity of kcna1 morphants [7]: no effect; events via which increased respiration was blocked, kcna1 morphants [8]: mitochondrial-mediated events; effect on elevated basal respiration in kcna1 morphant larvae [8]: blocked; events via which elevated basal respiration was blocked, PTZ treated larvae [9]: non-mitochondrial-mediated events; effect on elevated basal respiration in PTZ treated larvae ([9]; 24-well plate): blocked; effect on increased basal respiration in scn1a morphants [10]: reduce basal respiration to WT levels; effect on increased basal respiration in kcna1 mutant larvae [11]: decreased

Which results are given for O=C(CCCCCCC(=O)Nc1ccccc1)NO [vorinostat]?
events via which increased respiration was blocked, kcna1 morphants [8]: mitochondrial-mediated events; effect on elevated basal respiration in kcna1 morphant larvae [8]: blocked; effect on seizure-like activity (EEG traces) [12]: blocks; number of seizures per day (video EEG) [13]: significantly reduced; effect on increased basal respiration in kcna1 mutant larvae [11]: decreased
